According to US5455222A, “1-substituted-5-thiomethylthiocyanato-1H-tetrazoles, compositions containing them and their use as antimicrobial and marine antifouling agents” (The Dow Chemical Company, priority 1994, dated 1995):
Values after ≈ are worked out from the molar mass of the structure shown.

How the values were obtained:
Fusarium oxysporum (Fo) = experiment: Minimum inhibitory concentration (MIC), yeast/fungi in malt yeast agar; assay type: cell-based, Fusarium oxysporum ATCC 48112; settings: 30° C., 72 hours for fungi
Protocol: The minimum inhibitory concentration (MIC) for the compounds listed in Table I is determined for 9 bacteria, using nutrient agar, and 7 yeast and fungi, using malt yeast agar. A one percent solution of the test compound is prepared in a mixture of acetone and water.
Malt yeast agar is prepared by adding 3 g yeast extract and 45 g malt agar per liter of deionized water. The specific agar is dispensed in 30 mL aliquots into 25×200 mm test tubes, capped and autoclaved for 15 minutes at 115° C.
The test tubes containing the agar are cooled in a water bath until the temperature of the agar is 48° C. Then, an appropriate amount of the one percent solution of the test compound is added (except in the controls where no compound is added) to the respective test tubes so that the final concentrations are 500, 250, 100, 50, 25, 10, 5, 2.5, 1.0 and zero parts per million of the test compound in the agar, thus having a known concentration of test compound dispersed therein. The contents of the test tubes are then transferred to respective petri plates. After drying for 24 hours, the petri plates containing nutrient agar are inoculated with bacteria and those containing malt yeast agar are inoculated with yeast and fungi.
The inoculation with the yeast and fungi is accomplished as follows. Cultures of yeast and fungi are incubated for seven days on malt yeast agar at 30° C. These cultures are used to prepare suspensions by the following procedure. A suspension of each organism is prepared by adding 10 mL of sterile saline and 10 microliters of octylphenoxy polyethoxy ethanol to the agar slant of yeast or fungi. The sterile saline/octylphenoxy polyethoxy ethanol solution is then agitated with a sterile swab to suspend the microorganism grown on the slant. Each resulting suspension is diluted into sterile saline (1 part suspension to 9 parts sterile saline). Aliquots of these dilutions are placed in individual wells of Steer's Replicator and petri plates inoculated as previously described. The petri plates are incubated at 30° C. and read after 48 hours for yeast and 72 hours for fungi.
Table II lists the bacteria, yeast and fungi used in the MIC test described above along with their respective American Type Culture Collection (ATCC) identification numbers.
In Tables III and IV, the MIC values of the compounds described in Table I as compared to the MIC of a standard commercial preservative (with 1-(3-chloroallyl)-3,5,7-triaza-1-azoniaadamantane chloride as the active agent and referred to in Tables III and IV as "STANDARD I") are set forth for the bacteria organisms and yeast/fungi organisms which are listed in Table II.

marine organisms = experiment: Marine antifouling activity, coated test panels exposed to marine environment; settings: scale 10 (completely free of growth) to 0 (completely covered); for Marine Antifouling Rating, 6 Week Test, Bottom Panel / Marine Antifouling Rating, 6 Week Test, Top Panel: 6 weeks; for Marine Antifouling Rating, 6 Week Test, Bottom Panel / Marine Antifouling Rating, 15 Week Test, Bottom Panel: bottom panel (black background); for Marine Antifouling Rating, 6 Week Test, Top Panel / Marine Antifouling Rating, 15 Week Test, Top Panel: top panel (white background); for Marine Antifouling Rating, 15 Week Test, Bottom Panel / Marine Antifouling Rating, 15 Week Test, Top Panel: 15 weeks
Protocol: Test panels are prepared from clear, rigid polyvinyl chloride film that is 0.381×10^-3 m thick and has one textured surface. The test panels are 0.1524 m by 0.1524 m squares that have 0.00635 m holes punched at corners on 0.127 m centers. A 0.102 square template, with a 0.067 m diameter hole at the center, is attached to the center of the textured surface of the test panels.
A candidate marine antifoulant compound (1.0 g) is stirred into a resinous latex binder (9.0 g). A portion of the compound/binder mixture (1.5 g) is added to the center of the test panel and uniformly spread over the circular area inside the template.
Water is added dropwise as needed to properly spread the compound/binder mixture. The template prevents the compound/binder mixture from spreading beyond the uncovered area. […] The template is then removed. The test panel is then allowed to dry for 8 to 12 hours at room temperature.
Two test panels are prepared for each candidate marine antifoulant compound. Two control test panels are also prepared by only treating with the resinous latex binder. One test panel of each candidate marine […] compound is attached over a white background to the topside of an exposure support apparatus. The second test panel is attached over a black background to the underside of the exposure support apparatus. The exposure support apparatus is placed horizontally 0.0254 m under a marine surface with the white background topside facing up.
After being removed from the exposure support apparatus, each test panel is inspected and rated for marine organism growth on both the treated and untreated areas of the test panel. The marine organisms present on the treated and untreated areas are noted. The presence of algae spores and bacterial slime are noted but not included in rating each test panel. The test panels are rated on a scale from 10 (representing completely free of marine organism growth) to 0 (representing completely covered with marine organism growth).
In addition, test panels were prepared using tributyl tin oxide, a known marine antifouling compound.

| Compound | MIC (Fusarium oxysporum (Fo)) [µg/mL] | Marine Antifouling Rating, 6 Week Test, Bottom Panel (marine organisms) | Marine Antifouling Rating, 6 Week Test, Top Panel (marine organisms) | Marine Antifouling Rating, 15 Week Test, Bottom Panel (marine organisms) | Marine Antifouling Rating, 15 Week Test, Top Panel (marine organisms) |
| --- | --- | --- | --- | --- | --- |
| N#CSCSc1nnnn1-c1ccc(Cl)cc1 [III, 1-(4-Chlorophenyl)-5-thiomethylthiocyanato-1H-tetrazole] | 2.5 (≈ 8.81 µM) | 9 | 9 | 1 | 4 |
| N#CSCSc1nnnn1C1CCCCC1 [X, 1-(Cyclohexyl)-5-thiomethylthiocyanato-1H-tetrazole] | 5 (≈ 19.6 µM) | 10 | 9 | 8 | 4 |
| N#CSCSc1nnnn1-c1cccc(Cl)c1 [II, 1-(3-Chlorophenyl)-5-thiomethylthiocyanato-1H-tetrazole] | < 10 | 10 | 9 | 6 | 9 |
| Cc1cccc(-n2nnnc2SCSC#N)c1 [VI, 1-(3-Methylphenyl)-5-thiomethylthiocyanato-1H-tetrazole] | < 1 | 10 | 9 | 9 | 8 |
